Source: ChEMBL document CHEMBL3714747, “Imidazothiadiazole and imidazopyrazine derivatives as protease activated receptor 4 (par4) inhibitors for treating platelet aggregation” (2015)

Columns and labels:
[1] = target: T1, Proteinase-activated receptor 4 (Homo sapiens, UniProt Q96RI0); test: Antagonist activity against human PAR4 expressed in HEK293 cells assessed as reduction in H-Ala-Phe(4-F)-Pro-Gly-Trp-Leu-Val-Lys-Asn-Gly-NH2-induced intracellular calcium mobilization incubated for 30 mins by FLIPR assay; assay type: functional, cell-based
T1 sequence (Q96RI0 whole entry): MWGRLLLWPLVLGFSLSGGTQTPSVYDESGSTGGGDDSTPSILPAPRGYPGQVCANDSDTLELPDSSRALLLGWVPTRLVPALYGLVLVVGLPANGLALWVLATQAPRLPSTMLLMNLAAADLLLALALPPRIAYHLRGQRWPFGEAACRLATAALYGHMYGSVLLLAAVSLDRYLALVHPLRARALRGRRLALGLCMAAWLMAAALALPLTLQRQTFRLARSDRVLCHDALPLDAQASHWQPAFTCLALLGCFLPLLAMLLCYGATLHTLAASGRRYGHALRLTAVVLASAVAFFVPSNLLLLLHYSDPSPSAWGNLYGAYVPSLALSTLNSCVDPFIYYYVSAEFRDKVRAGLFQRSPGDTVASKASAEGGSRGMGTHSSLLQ

[2] = system: Cynomolgus monkey; test: Antithrombotic activity in cynomolgus monkey electrolytic injury-induced carotid artery thrombosis model assessed as reduction in thrmbosis-induced occlusion at 0.1 mg/kg, po dosed 1 to 2 hrs before test; assay type: functional; conditions: Macaca fascicularis
[3] = system: Cynomolgus monkey; test: Antithrombotic activity in cynomolgus monkey electrolytic injury-induced carotid artery thrombosis model assessed as reduction in thrmbosis-induced occlusion at 0.02 mg/kg, po dosed 1 to 2 hrs before test; assay type: functional; conditions: Macaca fascicularis
[4] = system: Cynomolgus monkey; test: (§1) Antithrombotic activity in cynomolgus monkey electrolytic injury-induced carotid artery thrombosis model assessed as reduction in thrmbosis-induced occlusion at […], po dosed 1 to 2 hrs before test; assay type: functional; conditions: Macaca fascicularis
[5] = system: Cynomolgus monkey; test: as §1; assay type: functional; conditions: Macaca fascicularis; remark: listed apart in the source
[6] = system: Cynomolgus monkey; test: Antithrombotic activity in cynomolgus monkey electrolytic injury-induced carotid artery thrombosis model assessed as reduction in thrmbosis-induced occlusion at 0.5 mg/kg, po dosed 1 to 2 hrs before test; assay type: functional; conditions: Macaca fascicularis

Row | EC50 [1] [nM] | SMILES | inhibition in vivo at 0.1 mg/kg [2] [%] | inhibition in vivo at 0.02 mg/kg [3] [%] | inhibition in vivo at […] [4] [%] | inhibition in vivo at […] [5] [%] | inhibition in vivo at 0.5 mg/kg [6] [%]
1 | 0.42 | COc1cc(OCc2csc(N3CCN(c4cnccn4)CC3)n2)c2cc(-c3cn4nc(C)ccc4n3)oc2c1 | – | – | – | – | –
2 | – | COc1cc(OCc2csc(-c3ccccc3)n2)c2cc(-c3cn4nc(OC)sc4n3)oc2c1 | 24 | 19 | 46 | 51 | 47
